A short description of series [1]: pH 3 degradation test. The class given is physicochemical. The procedure:
The dramatic improvement in stability is not surprising, because the ester group of fumagillin is susceptible to hydrolysis at low pH. […] This should enable the administration of lower doses, reducing toxicity risks.
For accelerated temperature degradation tests at 75% relative humidity and at laboratory uncontrolled relative humidity, fumagillin and compounds 3 and 9 were incubated at 37°C under either controlled or uncontrolled humidity, and the samples were analyzed by HPLC every week for 4 weeks. Measurements were made in duplicate. Area-under-the-curve values were calculated to derive the percentage of compound remaining. For pH degradation, the compounds were dissolved in DMSO and mixed with pH 3.0 buffer. The samples were incubated at 25°C for up to 48 h. Samples were analyzed by HPLC every 2 h for the first 8 h and then after 24 and 48 h.

The test system of series [2] is CHO-K1 (CHO) cells. Description: CHO cell cytotoxicity, ATP content assay. The class given is cell-based. The settings on record: for IC50: Cricetulus griseus, CHO, 48 h, read-out: IC50 CHO. The procedure: Cytotoxicity in CHO-K1 (CHO) cells was also determined using the homogeneous ATP content assay with an ATPlite kit, to enable comparison with the IC50 values in the G. lamblia and E. histolytica trophozoites and provide an initial estimate of toxicity risk. Fumagillin served as a comparative control, untreated cells (including 0.5% DMSO) served as a negative control, and puromycin served as a positive control.
CHO cells (180 μl) were seeded at a density of 5,000 cells/well and incubated for 24 h at 37°C in a 5% CO2 incubator in a 96-well plate. The cells were treated with 20 μl fumagillin or fumagillol derivative solutions diluted to obtain final concentrations of 100, 30, 10, 3, 1, and 0.3 μM. Puromycin was diluted from 10 through 0.03 μM. The plates were incubated for 48 h at 37°C in a 5% CO2 incubator. One hundred microliters per well of ATPlite luminescence reagent was added to the plates, the plates were incubated at room temperature for 30 min, and the luminescence signal was measured. The assay was performed in duplicate.

The target of series [3] is T1, human MetAP2 (Homo sapiens, UniProt P50579).
T1 construct: purchased Bio-Techne/R&D Systems
Description: MetAP2 fluorescence assay. The class given is biochemical. The settings on record: for IC50 of compound/IC50 of fumagillin: human MetAP2. On the procedure: Based on the available crystal structures of MetAP2 complexes, the fumagillol core binds in a crowded environment, forming exquisite electrostatic interactions. Therefore, there is little room for the core fumagillol scaffold to adopt a different mode of binding. In contrast, the R group at C-6 can vary substantially because it is mostly solvent exposed. The L groups bind in a narrow site at the active-site entrance.
Recombinant human MetAP2 (Bio-Techne/R&D Systems) was diluted to 10 μg/ml in the assay buffer (50 mM HEPES, 0.1 mM CoCl2, 100 mM NaCl, pH 7.5). The substrate H-Met-Gly-Pro-7-amido-4-methylcoumarin (Bio-Techne/R&D Systems) was diluted to 500 μM with 2 μg/ml of the coupling enzyme, recombinant human dipeptidyl peptidase 4 (Bio-Techne/R&D Systems), in assay buffer. Fifty microliters of 10-μg/ml recombinant human MetAP2 was loaded into a flat-bottom black 96-well plate (Greiner Bio), and the reaction was initiated by adding 50 μl of the substrate/dipeptidyl peptidase 4 mixture. The reaction mixture was incubated at room temperature for 10 min, and the fluorescence was measured for 5 min at excitation and emission wavelengths of 380 nm and 460 nm, respectively, in the kinetic mode. For IC50 determination, 0.5 μl inhibitor solution was added to the reaction mixture. […] The reaction rates were fitted to a 4-parameter logistic nonlinear regression model using the KaleidaGraph tool, yielding the IC50 values and standard error.

Series [4] is described as follows: in vitro. As to conditions: human; for efflux ratio at 120 min, 10 µM: Caco-2, pH 7.4; for Papp at 120 min, 10 µM: Caco-2, pH 7.4, Mean ± SE Papp. From the text: Next, we tested the permeation of the compounds across polarized Caco-2 cell monolayers, a method that is widely used as an in vitro model of the human small intestinal mucosa to predict the absorption of orally administered drugs ([63], [64]). With noninvasive intestinal infections, there is no need to establish a high plasma concentration. Since a high rate of uptake through the host gut lining could increase compound toxicity, we sought to reduce gut absorption. […] Both apical-to-basal and basal-to-apical permeation values were measured to obtain information about efflux. […] The efflux machinery is currently unknown.
Passage 36 Caco-2 cells were used. The cells were cultured in Dulbecco’s modified Eagle’s medium (DMEM; 5 ml of 100 mM sodium pyruvate, 5 ml of 100× nonessential amino acids, 5 ml of penicillin-streptomycin, and 100 ml of heat-inactivated fetal bovine serum added to 385 ml of DMEM aseptically and mixed thoroughly), pH 7.4, at 37°C in 5% CO2. DMEM (250 μl) was added to the basal compartment of 96-well multiscreen Caco-2 cell plate consisting of high-pore-density polycarbonate (Millipore) with a 0.4-μm pore size and a 0.11-cm^2 active membrane area. The cells were seeded at a density of 12,000 cells/well (0.16 × 10^6 cells/ml) in the apical wells, with one well containing only medium as blank. The Caco-2 cell plate was placed in a CO2 incubator at 37°C for cell proliferation. On the day of assay, the medium was removed, washed twice with Hanks balanced salt solution (HBSS) buffer supplemented with 2% bovine serum albumin (BSA), pH 7.4, and incubated with the HBSS buffer for 30 min at 37°C. Wells with transepithelial electrical resistance values of greater than 230 Ω · cm^2 were selected for the experiments. […] The assay was performed in duplicate.
Seventy-five microliters of the test compounds was added to the apical wells, and 250 μl of HBSS buffer with 2% BSA was added to the basal wells. The plate was incubated in a CO2 incubator with shaking on a plate shaker at 150 rpm for 120 min, after which 25 μl of the basal samples was collected and processed.
Two hundred fifty microliters of test compounds was added to the basal wells, and 75 μl of HBSS buffer with 2% BSA was added to the apical wells. The plate was incubated in a CO2 incubator with shaking on a plate shaker at 150 rpm for 120 min, after which 25 μl of the apical samples was collected and processed.
For sample processing, a single-point calibration curve in HBSS buffer with 2% BSA was used. Donor samples were diluted 1:1 with HBSS containing 2% BSA, and receiver samples were diluted with 1:1 HBSS buffer and precipitated with 200 μl of acetonitrile containing internal standard. The samples were vortexed for 5 min at 1,000 rpm and centrifuged at 4,000 rpm for 10 min. One hundred microliters of the supernatant was diluted with 200 μl of water and analyzed by LC-MS/MS (with a Shimadzu ultrafast liquid chromatograph and an API 4000 LC-MS/MS system).
The apparent permeation coefficients (Papp) were calculated as Papp = (dQ/dT) × (1/C0) × (1/A), where dQ is the amount permeated to the receiver compartment of the 96-well plate, dT is the time of compound incubation, C0 is the initial compound concentration in the donor compartment of the well, and A is the surface area of the monolayer.
On the technique in general: Caco-2 monolayers are a common model of the intestinal barrier.

[5] abbreviates: recombinant human MetAP2, fluorescence assay, read-out: Mean ± SE IC50, inhibition of human MetAP2.

Like-named read-outs stand apart in the source and are kept apart here.

In general, half-life refers to the time needed for the level to fall by half in the phase considered. What is called IC50 is the point on the concentration scale where inhibition reaches its midpoint. A word on the efflux ratio: it is a quotient of directional permeabilities that is used to spot active efflux. The Papp is a coefficient for how fast a substance crosses the barrier. A lower Papp goes with poor permeation.

T1 sequence (P50579 whole entry): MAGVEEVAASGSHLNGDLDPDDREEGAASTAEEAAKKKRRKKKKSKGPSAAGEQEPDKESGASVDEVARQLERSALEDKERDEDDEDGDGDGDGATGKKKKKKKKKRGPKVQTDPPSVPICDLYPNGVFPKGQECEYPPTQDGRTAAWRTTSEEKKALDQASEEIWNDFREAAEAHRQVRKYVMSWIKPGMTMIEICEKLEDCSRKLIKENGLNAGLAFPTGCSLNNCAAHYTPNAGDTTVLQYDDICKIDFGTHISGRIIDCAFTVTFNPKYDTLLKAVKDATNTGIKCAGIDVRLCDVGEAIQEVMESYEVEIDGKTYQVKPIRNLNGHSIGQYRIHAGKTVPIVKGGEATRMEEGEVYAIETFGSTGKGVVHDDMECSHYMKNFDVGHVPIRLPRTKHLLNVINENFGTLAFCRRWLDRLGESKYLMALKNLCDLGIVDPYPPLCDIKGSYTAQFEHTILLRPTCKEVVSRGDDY

Regarding `COC1C(OC(=O)NC(=O)CN2CCOCC2)CCC2(CO2)C1C1(C)OC1CC=C(C)C` (stereo not drawn) [Compound 3], the half-life in series [1] (buffer, pH 3) is 1040 ± 136 min. Moreover, the IC50 in series [2] (cytotoxicity, ATP content) was > 100 µM; in series [3] (setting [5]), 0.67 ± 0.02 nM. Also, the “IC50 of compound/IC50 of fumagillin” value in series [3] was 1.68. Further, the efflux ratio at 120 min, 10 µM in series [4] was 1.95. For the same molecule, the Papp at 120 min, 10 µM was found to be 15.8 ± 0.94 ×10⁻⁶ cm/s in series [4] (apical to basal) and 30.4 ± 4.35 ×10⁻⁶ cm/s in series [4] (basal to apical).
In the case of `COC1C(OC(=O)NC(=O)CN2CCC(O)CC2)CCC2(CO2)C1C1(C)OC1CC=C(C)C` (stereo not drawn) [Compound 4], the IC50 in series [2] (cytotoxicity, ATP content) is > 100 µM.
Turning to `CO[C@@H]1[C@H](OC(=O)Nc2ccc(C(=O)O)cc2)CC[C@]2(CO2)[C@H]1[C@@]1(C)O[C@@H]1CC=C(C)C` [Compound 9, 4-(((((3R,4S,5S,6R)-5-methoxy-4-((2R,3R)-2-methyl-3-(3-methylbut-2-en-1-yl)oxiran-2-yl)-1-oxaspiro[2.5]octan-6-yl)oxy)carbonyl)amino)benzoic acid], the half-life in series [1] (buffer, pH 3) was 2590 ± 87 min. Further, the results for the concentration for half-maximal inhibition (IC50) in series [2] and in series [3] were > 100 µM and 1.1 ± 0.3 nM, respectively. Besides, the Papp at 120 min, 10 µM in series [4] (apical to basal) came to 12.6 ± 0.63 ×10⁻⁶ cm/s; in series [4] (basal to apical) it was 23.6 ± 8.14 ×10⁻⁶ cm/s.
On to `CCOC(=O)Cc1ccc(NC(=O)OC2CCC3(CO3)C(C3(C)OC3CC=C(C)C)C2OC)cc1` (stereo not drawn) [Compound 11], for which the half-maximal inhibitory concentration (IC50) in series [2] (cytotoxicity, ATP content) was > 100 µM.
In the case of `COC1C(OC(=O)N2CCC(O)CC2)CCC2(CO2)C1C1(C)OC1CC=C(C)C` (stereo not drawn) [Compound 16], the IC50 in series [2] (cytotoxicity, ATP content) is > 100 µM.
`CO[C@@H]1[C@H](OC(=O)/C=C/C=C/C=C/C=C/C(=O)O)CC[C@]2(CO2)[C@H]1[C@@]1(C)O[C@@H]1CC=C(C)C` [Fumagillin, reference compound]: the half-life in series [1] (pH 3.0 buffer, pH 3, 25°C, read-out: Mean ± SE half-life at pH 3 and 25°C (converted)) was 85.2 ± 3 min. In addition, the concentration for half-maximal inhibition (IC50) is > 100 µM in series [2] and 0.4 ± 0.03 nM in series [3] (setting [5]). For the same molecule, the “IC50 of compound/IC50 of fumagillin” value in series [3] is 1. Further, the efflux ratio at 120 min, 10 µM in series [4] amounted to 2.13. Also, the Papp at 120 min, 10 µM in series [4] (apical to basal, Caco-2, 10 μM, 120 min) is 23.7 ± 2.52 ×10⁻⁶ cm/s; in series [4] (basal to apical, Caco-2, 10 μM, 120 min) it was 48.8 ± 9.13 ×10⁻⁶ cm/s.
Consider `Cc1ncc([N+](=O)[O-])n1CCO` [Metronidazole, reference compound], for which, in series [2] (vs E. histolytica), the “selectivity, IC50 for CHO cells/IC50 for amebae” value is on record as > 10. In series [2] (vs G. lamblia trophozoites), the “selectivity, IC50 for CHO cells/IC50 for giardia” value was < 10.

(Values after PMC7508583, “Discovery and Preclinical Development of Antigiardiasis Fumagillol Derivatives” (Antimicrobial Agents and Chemotherapy, 2020).)
